Assay results taken from patent US20160151369A1, “SUBSTITUTED 3-PHENYLPROPYLAMINE DERIVATIVES FOR THE TREATMENT OF OPHTHALMIC DISEASES AND DISORDERS” (ACUCELA INC., priority 2013, published 2016).
Where two headings read alike, the source gives them in different places.

What was measured:
[1] = system: retinal isomerase activity (regeneration of 11-cis-retinal); assay: Comparative in vivo murine isomerase assay, dose response (compound A vs compound D); design: species or system BALB/c mice
Experimental: (§1) All test compounds were stored at room temperature, dessicated.
On the day prior to dose administration compound A and compound D were weighed into new empty glass vials. The compounds were dissolved in di-water at the concentration of 0.833 mg/mL compound A and 0.892 mg/mL compound D, serially diluted into various concentrations, and stored overnight at 4 OC.
56 Male BALB/c mice (Charles River Laboratories) were used for this study. The mice were approximately 8 weeks at the initiation of dosing with an average body weight of 24 grams.
The day prior to dose administration 56 BALB/c mice were placed into a dark room and dark adapted for a minimum of 12 hours prior to dose administration. The mice were maintained in the dark for the duration of the study.
Each animal was removed from its cage and dosed accordingly to the study design in Table 4 (see below). Each animal was administered 0.1 mL of the appropriate compound or vehicle via oral gavage using a 1 mL syringe fitted with a 23 gauge oral gavage needle. Two hours following dose administration, animals were removed from the dark and exposed to 5000 Lux white light for 10 minutes to photobleach their eyes.
Following the completion of the photobleach the animals were returned to the dark for 2 hours to allow for the regeneration of 11-cis-retinal in the eyes. Two hours after photobleaching each animal was euthanized with carbon dioxide followed by cervical dislocation, in the dark under red light. The light control group was euthanized immediately following photobleaching. Immediately following the cervical dislocation both eyes of each animal were removed and transferred into separate tubes, flash frozen in liquid nitrogen and stored in the dark at −80° C. until processing and analysis.
(§2) All sample processing procedures were performed in the dark under red light.
Extracted samples were analyzed using an Agilent 1100 HPLC system according to the procedure outlined in Table 6 (see below)
(§3) HPLC analysis of the eyes measures the peak area units of the 110 cis-Ral-Oxime_syn. Signal.
(§4) Data analysis % inhibition (drug vs. recovery control). % control (drug vs. light control), and One-way ANOVA (followed by Tukey's Multiple Comparison) were performed using peak area units and performed by Prism software. Data are represented as mean and standard deviation.

[2] = system: regeneration of 11-cis-retinal (isomerase); assay: Single dose time course in the in vivo isomerase assay at 0.3 mg/kg (compound A vs compound D); details: BALB/c mice, single oral dose 0.3 mg/kg; for inhibition at 0.3 mg/kg: Mus musculus, read-out: Percent Inhibition, 0.3 mg/kg, Avg. % Inhibition
Experimental: as §1
On the day prior to dose administration 3-amino-1-(3-((tetrahydro-2H-pyran-4-yl)methoxy)phenyl)propan-1-ol (compound A) and 3-amino-1-(3-((tetrahydro-2H-pyran- 2-yl)methoxy)phenyl)propan-1-ol (compound D) were weighed into new empty glass vials. The compounds were dissolved in di-water at the concentration of 0.068 mg/mL and stored overnight at 4° C.
52 Male BALB/c mice (Charles River Laboratories) were used for this study. The mice were approximately 8 weeks at the initiation of dosing with an average body weight of 23 grams.
The day prior to dose administration 52 BALB/c mice were placed into a dark room and dark adapted for a minimum of 12 hours prior to dose administration. The mice were maintained in the dark for the duration of the study.
Each animal was removed from its cage and dosed accordingly to the study design in Table 10 (see below). Each animal was administered 0.1 mL of the appropriate test article or vehicle orally using a 1 mL syringe fitted with a 23 gauge oral gavage needle. At 2, 4, 6, 8, 16 or 24 hours following dose administration, animals were removed from the dark and exposed to 5000 Lux white light for 10 minutes to photobleach their eyes. Following the completion of the photobleach the animals were returned to the dark for 2 hours to allow for the regeneration of 11-cis-retinal in the eyes. Two hours after photobleaching each animal was euthanized with carbon dioxide followed by cervical dislocation, in the dark under red light. The light control group was euthanized immediately following photobleaching. Immediately following the cervical dislocation both eyes of each animal were removed and transferred into separate tubes, flash frozen in liquid nitrogen and stored in the dark at −80° C. until processing and analysis.
as §2
Extracted samples were analyzed using an Agilent 1100 HPLC system according to the procedure outlined in Table 12 (see below)
as §3, §4

[3] = system: isomerase (recovery of 11-cis-retinal after bleaching); assay: In vivo murine isomerase assay (Table 3); details: Mus musculus, po, 4 h, mice, Dose 1 mg/kg
Experimental: The capability of compounds described herein to inhibit isomerase was determined by an in vivo murine isomerase assay. […] The recovery of 11-cis-retinal after bleaching can be used to estimate the activity of isomerase in vivo. Delayed recovery, as represented by lower 11-cis-retinal oxime levels, indicates inhibition of isomerization reaction.
Mice were gavaged with the test compound. […] The mice were allowed to recover 2 hours in the dark. The animals were then sacrificed by carbon dioxide inhalation. Retinoids were extracted from the eye and the regeneration of 11-cis-retinal was assessed at various time intervals.
After the mice were sacrificed, the eyes were immediately removed and placed in liquid nitrogen for storage.
The eyes were placed in 500 μL of bis-tris propane buffer (10 mM, pH˜7.3) and 20 μL of 0.8M hydroxile amine (pH˜7.3). The eyes were cut up into small pieces with small iris scissors and then thoroughly homogenized at 30000 rpm with a mechanical homogenizer (Polytron PT 1300 D) in the tube until no visible tissue remained. 500 μL of methanol and 500 μL of heptane were added to each tube. The tubes were attached to a vortexer so that the contents were mixed thoroughly for 15 minutes in room temperature. The organic phase was separated from the aqueous phase by centrifugation for 10 min at 13K rpm, 4° C. 240 μL of the solution from the top layer (organic phase) was removed and transferred to clean 300 μl glass inserts in HPLC vials using glass pipette and the vials were crimped shut tightly.
The samples were analyzed on an Agilent 1100 HPLC system with normal phase column: SILICA (Beckman Coutlier, dp 5 μm, 4.6 mM×250 mM). […] Loading volume for each sample was 100 μl; detection wavelength was 360 nm. The area under the curve for 11-cis retinal oxime was calculated by Agilent Chemstation software and was recorded manually. Data processing was performed using Prizm software.
Positive control mice (no compound administered) were sacrificed fully dark-adapted and the eye retinoids analyzed. Light (bleached) control mice (no compound administered) were sacrificed and retinoids isolated and analyzed immediately after light treatment.
A time course study was performed to determine the isomerase inhibitory activity of the test compound. […] The animals were then “photo-bleached” (5000 Lux white light for 10 minutes) at 2, 4, 8, 16 and 24 hours after dosing, and returned to darkness to allow recovery of the 11-cis-retinal content of the eyes. Mice were sacrificed 2 hours after bleaching, eyes were enucleated, and retinoid content is analyzed by HPLC.
Recovery control mice (vehicle-only treated) were light-treated and left to recover for 2 hours in the dark before sacrifice and analysis. Light control mice (vehicle only treated) were sacrificed for analysis immediately after photo-bleaching.
An in vivo dose response isomerase inhibition study was performed with test compound. […] Recovery and retinoid analysis were performed as described above. Dark control mice were vehicle-only treated, sacrificed fully dark adapted without light treatment, and analyzed. Recovery control mice and light control mice were included in the study as per the initial phase.

NCCC(O)c1cccc(OCC2CCCCO2)c1 (centres unmarked) [compound D, reference compound]
dose at which 11-cis-retinal recovery was inhibited by 50% (called IC50) ([1]; BALB/c mice, single oral dose, 2 h, dose response experiment): 0.59 mg/kg
inhibition at 0.03 mg/kg ([1]; Mus musculus, po, 2 h, BALB/c mice, single oral dose 0.03 mg/kg, bleach 2 h after dose, drug vs. recovery control, read-out: Percent Inhibition at 2 Hours, Avg. % Inhibition): -5.3%
inhibition at 0.1 mg/kg ([1]; Mus musculus, po, 2 h, BALB/c mice, single oral dose 0.1 mg/kg, bleach 2 h after dose, drug vs. recovery control, read-out: Percent Inhibition at 2 Hours, Avg. % Inhibition): -23.9%
inhibition at 0.3 mg/kg ([1]; Mus musculus, po, 2 h, BALB/c mice, single oral dose 0.3 mg/kg, bleach 2 h after dose, drug vs. recovery control, read-out: Percent Inhibition at 2 Hours, Avg. % Inhibition): -2.1%
inhibition at 0.5 mg/kg ([1]; Mus musculus, po, 2 h, BALB/c mice, single oral dose 0.5 mg/kg, bleach 2 h after dose, drug vs. recovery control, read-out: Percent Inhibition at 2 Hours, Avg. % Inhibition): 41.4%
inhibition at 1 mg/kg ([1]; Mus musculus, po, 2 h, BALB/c mice, single oral dose 1 mg/kg, bleach 2 h after dose, drug vs. recovery control, read-out: Percent Inhibition at 2 Hours, Avg. % Inhibition): 70.2%
inhibition at 3 mg/kg ([1]; Mus musculus, po, 2 h, BALB/c mice, single oral dose 3 mg/kg, bleach 2 h after dose, drug vs. recovery control, read-out: Percent Inhibition at 2 Hours, Avg. % Inhibition): 100%
activity at 0.03 mg/kg ([1]; Mus musculus, BALB/c mice, single oral dose 0.03 mg/kg, bleach 2 h after dose, read-out: Percent control at 2 Hours (Avg. % Inhibition)): 105%
activity at 0.1 mg/kg ([1]; Mus musculus, BALB/c mice, single oral dose 0.1 mg/kg, bleach 2 h after dose, read-out: Percent control at 2 Hours (Avg. % Inhibition)): 124%
activity at 0.5 mg/kg ([1]; Mus musculus, BALB/c mice, single oral dose 0.5 mg/kg, bleach 2 h after dose, read-out: Percent control at 2 Hours (Avg. % Inhibition)): 58.6%
activity at 1 mg/kg ([1]; Mus musculus, BALB/c mice, single oral dose 1 mg/kg, bleach 2 h after dose, read-out: Percent control at 2 Hours (Avg. % Inhibition)): 29.8%
activity at 3 mg/kg ([1]; Mus musculus, BALB/c mice, single oral dose 3 mg/kg, bleach 2 h after dose, read-out: Percent control at 2 Hours (Avg. % Inhibition)): 0%
dose showing nearly 100% inhibition ([1]; dose response experiment, 2 h): 3.0 mg/kg
Percent Control, 0.3 mg/kg (average) ([2]; Time Point 2 Hours): 86.8%
Percent Control, 0.3 mg/kg (average) ([2]; Time Point 4 Hours): 101.8%
Percent Control, 0.3 mg/kg (average) ([2]; Time Point 6 Hours): 87.9%
Percent Control, 0.3 mg/kg (average) ([2]; Time Point 8 Hours): 94.6%
Percent Control, 0.3 mg/kg (average) ([2]; Time Point 16 Hours): 104.1%
Percent Control, 0.3 mg/kg (average) ([2]; Time Point 24 Hours): 89.5%
inhibition at 0.3 mg/kg ([2]; Time Point 2 Hours): 13.2%
inhibition at 0.3 mg/kg ([2]; Time Point 4 Hours): -1.8%
inhibition at 0.3 mg/kg ([2]; Time Point 6 Hours): 12.1%
inhibition at 0.3 mg/kg ([2]; Time Point 8 Hours): 5.4%
inhibition at 0.3 mg/kg ([2]; Time Point 16 Hours): -4.1%
inhibition at 0.3 mg/kg ([2]; Time Point 24 Hours): 10.5%
inhibition at 1 mg/kg [3]: 57%
